Assay results: patent US6486202B1, “Inhibitors of isoprenyl transferase” (Eisai Company, Limited, priority 2001, dated 2002)

Assays:
[1] = system: anchorage-independent cell growth; assay: Soft agar, anchorage-independent cell growth (Table 2); assay type: cell-based
[2] = system: H-ras farnesylation in H-ras (61 L) transformed NIH3T3 fibroblasts; assay: Inhibition of H-ras farnesylation in whole cells (Western blot); assay type: cell-based; conditions: treated 24 hours
Description: The ability of compounds of the invention to inhibit H-ras farnesylation and rapl geranylgeranylation in whole cells was determined. H-ras (61 L) transformed NIH3T3 fibroblasts were generously provided by C. Der, Univ. N. Carolina. These fibroblasts were treated for 24 hours with 50 μM lovastatin (control) or the indicated concentrations of inhibitor. The cells were lysed in 1% NP-40, 5mM Tris-HCl (pH 8.0), 5mM EDTA, 0.1mM N-tosyl-L-phenylalanine chloromethyl ketone, 0.1mM N-tosyl-L-lysine chloromethyl ketone, and 1 mM phenylmethylsulfonyl fluoride. The lysate was centrifuged (15000×g, 5 minutes.) and the supernatant was used as a cell extract. Total protein was separated by SDS-PAGE in 15% acrylamnide gel. After transfer to IMMOBILON P™ membrane (Millipore), the blots were probed with LA069 mouse monoclonal antibody to H-ras (Quality Biotech), or rabbit polyclonal antibody to rap1/Krev (Santa Cruz Biotechnology). All Western blots were developed using ECL chemiluminescent reagents (Amersham).

MIA PaCa-2 cells [3] = assay: Anchorage-independent growth of tumor cells in culture, compound 10 and paclitaxel; assay type: cell-based; conditions: for number of colonies: 17 day incubation
Description: 4×10^3MIA PaCa-2 cells (ATCC CRL1420) were seeded on 24-well culture plates in 0.2 mL of 0.33 Noble agar in 10% fetal calf serum/RPMI1640 medium over 0.4 mL of 0.66% Noble agar in the same culture medium. The top agar layer was overlayed with 0.2 mL of 0.66% Noble agar in culture medium. The upper agar was covered with 0.2 mL of culture medium containing the indicated concentration of paclitaxel and the indicated concentration of compound 10.
At the end of a 17 day incubation, 0.2 mL of 3.3 mg/mL 3-[4,5-dimethylthiazol-2-yl]-2,5-diphenyltetrazolium bromide in phosphate buffered saline was added and incubated for 1 hour. The number of stained colonies was analyzed with an image analyzer computer program.

MIA PaCa-2 cells [4] = assay: In vivo tumor model, subcutaneous MIA PaCa-2 tumors in nude mice; design: species or system nude mice (BALB/c-nu/nu)
Description: 5×10^6 MIA PaCa-2 cells in Hank's balanced salt solution were injected subcutaneously into the flanks of 6 to 8 week old female nude mice (BALB/c-nu/nu) at day 1. […] Compound 10 and paclitaxel were administered intravenously once a day for 5 days from day 6. Tumor volume was measured on the days indicated. Tumor volume was calculated according to the equation: tumor volume (mm^3)=(length×width^2)/2. The results are shown in FIG. 1, where the bars indicated standard deviation. The n value for the assays is 5.

FTase = FTase (Homo sapiens, UniProt P49354+P49356); assay: FTase prenylation assay (partially purified FTase, recombinant H-ras, [3H] farnesyl pyrophosphate); assay type: biochemical; conditions: 3 μM recombinant H-ras, 440 nM [3H] FPP, 15 minutes at 37° C.
GGTase = GGTase (Homo sapiens, UniProt P49354+P53609); assay: GGTase prenylation assay (partially purified GGTase, recombinant H-ras 61 L CAIL, [3H] geranylgeranyl diphosphate); assay type: biochemical; conditions: 5 μM recombinant H-ras (61 L, CAIL), 1 μM [3H] geranylgeranyl diphosphate
[5] = paclitaxel alone 6.25 mg/kg/day intravenously once a day for 5 days from day 6

## CCc1ccc(C/C=C/C(N)CS)cc1C(=O)N[C@@H](CCSC)C(=O)OC (stereo partly shown)
[1]
  IC50: 13 nM
[2]
  IC50: 56 nM

## COC(=O)[C@H](CCSC)NC(=O)c1cc(CCCC(N)CS)ccc1C(C)C (stereo partly shown)
[1]
  IC50: 19 nM
[2]
  IC50: 28 nM

## CC(=O)O[C@H]1C(=O)[C@@]2(C)[C@H]([C@H](OC(=O)c3ccccc3)[C@]3(O)C[C@H](OC(=O)[C@H](O)[C@@H](NC(=O)c4ccccc4)c4ccccc4)C(C)=C1C3(C)C)[C@]1(OC(C)=O)CO[C@@H]1C[C@@H]2O [Paclitaxel, paclitaxel, reference compound]
MIA PaCa-2 cells [3]; paclitaxel 0.63 nM, compound 10 0 nM
  number of colonies: 235
MIA PaCa-2 cells [3]; paclitaxel 1.25 nM, compound 10 0 nM
  number of colonies: 234
MIA PaCa-2 cells [3]; paclitaxel 2.5 nM, compound 10 0 nM
  number of colonies: 172
MIA PaCa-2 cells [3]; paclitaxel 5 nM, compound 10 0 nM
  number of colonies: 48
MIA PaCa-2 cells [4]; [5]
  tumor growth: inhibited tumor growth
  tumor regression: no tumor regression ever occurred

## COC(=O)[C@H](CCSC)NC(=O)c1cc(C/C=C/C(N)CS)ccc1C(C)C (stereo partly shown)
[1]
  IC50: 11 nM
[2]
  IC50: 22 nM

## COC(=O)[C@H](CCSC)NC(=O)c1cc(CCC[C@@H](N)CS)ccc1C(C)C.Cl [Compound 10]
MIA PaCa-2 cells [3]; compound 10 3.13 nM + paclitaxel 0.63 nM
  number of colonies: 255
MIA PaCa-2 cells [3]; compound 10 3.13 nM + paclitaxel 1.25 nM
  number of colonies: 204
MIA PaCa-2 cells [3]; compound 10 3.13 nM + paclitaxel 2.5 nM
  number of colonies: 64
MIA PaCa-2 cells [3]; compound 10 3.13 nM + paclitaxel 5 nM
  number of colonies: 8
MIA PaCa-2 cells [3]; compound 10 3.13 nM, paclitaxel 0 nM
  number of colonies: 271
MIA PaCa-2 cells [3]; compound 10 6.25 nM + paclitaxel 0.63 nM
  number of colonies: 214
MIA PaCa-2 cells [3]; compound 10 6.25 nM + paclitaxel 1.25 nM
  number of colonies: 168
MIA PaCa-2 cells [3]; compound 10 6.25 nM + paclitaxel 2.5 nM
  number of colonies: 36
MIA PaCa-2 cells [3]; compound 10 6.25 nM + paclitaxel 5 nM
  number of colonies: 4
MIA PaCa-2 cells [3]; compound 10 6.25 nM, paclitaxel 0 nM
  number of colonies: 210
MIA PaCa-2 cells [3]; compound 10 12.5 nM + paclitaxel 0.63 nM
  number of colonies: 203
MIA PaCa-2 cells [3]; compound 10 12.5 nM + paclitaxel 1.25 nM
  number of colonies: 148
MIA PaCa-2 cells [3]; compound 10 12.5 nM + paclitaxel 2.5 nM
  number of colonies: 22
MIA PaCa-2 cells [3]; compound 10 12.5 nM + paclitaxel 5 nM
  number of colonies: 1
MIA PaCa-2 cells [3]; compound 10 12.5 nM, paclitaxel 0 nM
  number of colonies: 189
MIA PaCa-2 cells [3]; compound 10 25 nM + paclitaxel 0.63 nM
  number of colonies: 173
MIA PaCa-2 cells [3]; compound 10 25 nM + paclitaxel 1.25 nM
  number of colonies: 124
MIA PaCa-2 cells [3]; compound 10 25 nM + paclitaxel 2.5 nM
  number of colonies: 16
MIA PaCa-2 cells [3]; compound 10 25 nM + paclitaxel 5 nM
  number of colonies: 1
MIA PaCa-2 cells [3]; compound 10 25 nM, paclitaxel 0 nM
  number of colonies: 161
MIA PaCa-2 cells [3]; compound 10 50 nM + paclitaxel 0.63 nM
  number of colonies: 119
MIA PaCa-2 cells [3]; compound 10 50 nM + paclitaxel 1.25 nM
  number of colonies: 74
MIA PaCa-2 cells [3]; compound 10 50 nM + paclitaxel 2.5 nM
  number of colonies: 0
MIA PaCa-2 cells [3]; compound 10 50 nM + paclitaxel 5 nM
  number of colonies: 0
MIA PaCa-2 cells [3]; compound 10 50 nM, paclitaxel 0 nM
  number of colonies: 97
MIA PaCa-2 cells [3]; compound 10 100 nM + paclitaxel 0.63 nM
  number of colonies: 72
MIA PaCa-2 cells [3]; compound 10 100 nM + paclitaxel 1.25 nM
  number of colonies: 26
MIA PaCa-2 cells [3]; compound 10 100 nM + paclitaxel 2.5 nM
  number of colonies: 0
MIA PaCa-2 cells [3]; compound 10 100 nM + paclitaxel 5 nM
  number of colonies: 0
MIA PaCa-2 cells [3]; compound 10 100 nM, paclitaxel 0 nM
  number of colonies: 64
MIA PaCa-2 cells [3]; compound 10 200 nM + paclitaxel 0.63 nM
  number of colonies: 30
MIA PaCa-2 cells [3]; compound 10 200 nM + paclitaxel 1.25 nM
  number of colonies: 11
MIA PaCa-2 cells [3]; compound 10 200 nM + paclitaxel 2.5 nM
  number of colonies: 0
MIA PaCa-2 cells [3]; compound 10 200 nM + paclitaxel 5 nM
  number of colonies: 0
MIA PaCa-2 cells [3]; compound 10 200 nM, paclitaxel 0 nM
  number of colonies: 23
MIA PaCa-2 cells [3]; compound 10 400 nM + paclitaxel 0.63 nM
  number of colonies: 6
MIA PaCa-2 cells [3]; compound 10 400 nM + paclitaxel 1.25 nM
  number of colonies: 1
MIA PaCa-2 cells [3]; compound 10 400 nM + paclitaxel 2.5 nM
  number of colonies: 0
MIA PaCa-2 cells [3]; compound 10 400 nM + paclitaxel 5 nM
  number of colonies: 0
MIA PaCa-2 cells [3]; compound 10 400 nM, paclitaxel 0 nM
  number of colonies: 3
MIA PaCa-2 cells [3]; compound 10 at 3.13 to 200 nM with paclitaxel 2.5 to 5 nM
  interaction with paclitaxel: synergistic
MIA PaCa-2 cells [3]; compound 10 at 100 to 200 nM with 1.25 nM paclitaxel
  interaction with paclitaxel: synergistically tumoricidal
MIA PaCa-2 cells [4]; compound 10 25 mg/kg/day plus paclitaxel 6.25 mg/kg/day intravenously once a day for 5 days from day 6, by 20 days after tumor cell implantation
  tumor regression: all tumors in all mice had completely regressed

## CSCC[C@H](NC(=O)c1cc(CCCC(N)CS)ccc1C(C)C)C(=O)O (stereo partly shown)
[1]
  IC50: 150 nM
[2]
  IC50: 390 nM

## CSCC[C@H](NC(=O)c1cc(CCCC(N)CS)ccc1C(C)C)C(=O)NCc1ccco1 (stereo partly shown)
[1]
  IC50: 300 nM
[2]
  IC50: 200 nM

## CSCC[C@H](NC(=O)c1cc(C/C=C/C(N)CS)ccc1C(C)C)C(=O)O (stereo partly shown)
[1]
  IC50: 160 nM
[2]
  IC50: 430 nM

## CSCCC(NC(=O)c1cc(CCCC(N)CS)ccc1C(C)C)C(=O)O (stereo not shown)
FTase
  IC50: 8 nM
GGTase
  IC50: 680 nM

## CCc1ccc(CC=CC(N)CS)cc1C(=O)NC(CCSC)C(=O)O (stereo not shown)
FTase
  IC50: 9 nM
GGTase
  IC50: 420 nM

## CCc1ccc(CC=CC(N)CS)cc1C(=O)NC(CCSC)C(=O)OC (stereo not shown)
FTase
  IC50: 560 nM
GGTase
  IC50: 1840 nM

## CCc1ccc(C/C=C/C(N)CS)cc1C(=O)N[C@@H](CCSC)C(=O)O (stereo partly shown)
[1]
  IC50: 950 nM
[2]
  IC50: 360 nM

## CSCCC(NC(=O)c1cc(CCCC(N)CS)ccc1C(C)C)C(=O)NCc1ccco1 (stereo not shown)
FTase
  IC50: 67 nM
GGTase
  IC50: 4430 nM

## CSCCC(NC(=O)c1cc(CC=CC(N)CS)ccc1C(C)C)C(=O)O (stereo not shown)
FTase
  IC50: 23 nM
GGTase
  IC50: 450 nM

## CSCCC(NC(=O)c1cc(CC=CC(N)CS)ccc1C)C(=O)O (stereo not shown)
FTase
  IC50: 1 nM
GGTase
  IC50: 2170 nM

## COC(=O)C(CCSC)NC(=O)c1cc(CC=CC(N)CS)ccc1C (stereo not shown)
FTase
  IC50: 300 nM
GGTase
  IC50: 1600 nM

## COC(=O)C(CCSC)NC(=O)c1cc(CC=CC(N)CS)ccc1C(C)C (stereo not shown)
FTase
  IC50: 80 nM
GGTase
  IC50: 3190 nM

## COC(=O)[C@H](CCSC)NC(=O)c1cc(C/C=C/C(N)CS)ccc1C (stereo partly shown)
[1]
  IC50: 75 nM
[2]
  IC50: 120 nM

## COC(=O)C(CCSC)NC(=O)c1cc(CCCC(N)CS)ccc1C(C)C (stereo not shown)
FTase
  IC50: 73 nM
GGTase
  IC50: 4440 nM

## CSCC[C@H](NC(=O)c1cc(C/C=C/C(N)CS)ccc1C)C(=O)O (stereo partly shown)
[1]
  IC50: 9000 nM
[2]
  IC50: 4000 nM
